In experiment [1] the target is T1, AKT kinase (unactivated) (Homo sapiens, UniProt P31749).
T1 construct: purchased Upstate Biotechnology #14-279
In words: Lipid-protein pull down assay with PIP Beads (PI (3,4,5) P3). It is filed as binding. As to the method: Lipid-protein pull down assay was performed for 10/24 peptide of TCL1.
Lipid-protein pull down assay was performed by using PIP Beads (PI (3,4,5) P3 Echelon Bioscience Incorporated). 10/24 NH2-AVTDHPDRLWAWEKF-COOH (SEQ ID NO: 1), and βC NH2-EKQHAWLPLTIE-COOH (SEQ ID NO: 22) as a control, were used. After treatment for 2 hours at 4° C. by using 50 ng of AKT kinase (unactivated, Upstate Biotechnology, #14-279), 25 μl of PIP Beads (PI (3,4,5) P3 Echelon Bioscience Incorporated) was added, then washed with fluid containing (10 mM Hepes, pH7.4, 0.25% NP-40, 140 mM NaCl), and western blotting was performed by using Akt antibody (Cell Signaling) (FIG. 8). […] Thus, this is considered to be the inhibition mechanism for Akt activation.

Experiment [2] concerns human T cell leukemia cells (T4). In words: Apoptosis of T4 cells by propidium iodide staining and FACS. The class given is cell-based. The protocol: The effect on apoptosis of 10/24 peptide was examined with the use of human T cell leukemia cells (T4).
10/24 peptide (NH2-AVTDHPDRLWAWEKF-COOH) (SEQ ID NO: 1) was pre-treated at 0-30 μM concentrations with the use of T4 cell lines without stimulation, 48 hours later stained with propidium iodide, and the apoptosis was determined by FACS (Beckton Dickinson). Further, to identify the AKT dependency of the anti-tumor effect, myr-AKT (constitutively activated AKT) was overexpressed.

Experiment [3] concerns the target T2, Akt3 (Homo sapiens, UniProt Q9Y243).
T2 construct: expressed in transfected cells; host or cells: 293 cells (ATCC), calcium phosphate transfection, pCMV6 vector
In words: Co-immunoprecipitation binding test with Akt subtype Akt3. The following applies: 293 cell lysate, peptide at 400 μM, anti Flag M2 immunoprecipitation, western blotting. As to the method:
(§1) Binding test between 10/24 peptide and Akt subtype molecule: Akt1, Akt2, or Akt3, was performed by using co-immunoprecipitation assay.
(§2) The cell lysate overexpressed Akt kinase in 293 cells (ATCC) i.e., Akt1, Akt2 or Akt3 in pCMV6 was expressed in 293 cells (ATCC) by using calcium phosphate method, and the overexpressed cells were harvested, lysed, and pre-treated with Protein G/A agarose mixture (50% v/v, ProG/A, Pharmacia). Akt or a control peptide (βC) was added to the cell lysate at 400 μM, inoculated with ProG/A for 3 hours at 4° C., and was added anti Flag M2 antibody (Sigma). The resultant immune precipitant was washed, and then were identified the binding to Akt kinase by western blotting (anti-HA antibody, 3F10, Boehringer Mannheim). As shown in the figure, the 10/24 peptide bound to any of the three subtypes of molecules, Akt1, Akt2, and Akt3.
A general note: A western blot detects proteins with antibodies after separation by electrophoresis.

Experiment [4] concerns Akt kinase. In words: Binding test by co-immunoprecipitation assay. The conditions noted are these: lysate of human 293 cells overexpressing AKT kinase, incubated around 2 hours, western blotting. The protocol:
In this method, AKT kinase was overexpressed in human 293 cells, and the harvested cell lysates was incubated with 10/24 peptide (NH2-AVTDHPDRLWAWEKF-COOH) (SEQ ID NO: 1) for around 2 hours. Further, the treated cell lysates were added agarose beads bound to the specific antibody against an epitope that was fused with Akt, and co-incubated for 2-3 hours. Then, molecules adhered in the cell lysates were immunoprecipitated with agarose beads bound to this antibody, and examined the binding to Akt kinase by using western blotting with specific antibody.

For experiment [5], the system named is T4 cell lines. In words: Cell growth test by MTT (WST-8 reagent) assay. The class given is cell-based, human. The following applies: T4 cell lines without stimulation, 0-50 μM, 48 hours, WST-8, absorbance at 450 nm. As to the method:
Cell growth test was performed by using MTT assay. That is, in experiments of cell growth by using WST-8 reagent [2-(2-methoxy-4-nitrophenyl)-3-(4-nitrophenyl)-5-(2,4-disulfophenyl)-2H-tetrazolium, monosodium salt]
In this method, 10/24 peptide was pre-treated at 0-50 μM concentration in cell growth test by using T4 cell lines without stimulation, 48 hours later the growth potency was measured by using WST-8 reagent assay, the absorbance at 450 nm was measured by ELISA using a microplate reader (Model 550; BioRad, Tokyo, Japan).
Background: Formazan colour is commonly taken as a measure of viable cells.

Experiment [6] deals with Mouse QrSP-11 fibrosarcoma tumors of example 8. In words: Histological examination of peptide treated mouse tumor. It is filed as in vivo. The text has this: Experimental mouse tumors of example 8 were harvested on the day 9, and histologically examined by macroscopic appearance, hematoxylin-eosin (H&E) staining (an observing method for conditions of cell nucleus and the like), TUNEL (Tdt-mediated dUTP nick end labeling, #MK500, Takara) immunostaining (a histologically identifying method for the way of the atypical death of carcinoma i.e., apoptosis), and phospho Akt (Ser 473) monoclonal antibody (a method for determining 587F11, Cell Signaling, phosphorylation of AKT kinase, and observing the activation).

Experiment [7] deals with Akt1. Description: Co-immunoprecipitation binding test with Akt subtype Akt1. The following applies: 293 cell lysate, peptide at 400 μM, anti Flag M2 immunoprecipitation, western blotting. As to the method:
as §1, §2

In experiment [8] the test system is AKT overexpressed in 293 cells. In words: Inhibition of activation and membrane translocation of AKT in 293 cells (confocal microscope). The class given is cell-based, human. The conditions noted are these: PDGF-AB 10 minutes, compared with control peptides. The protocol: Inhibition effect for the activation and membrane translocation of AKT of 10/24 peptide were tested with the use of 293 cells (ATCC).
[…] of AKT was overexpressed in 293 cells (ATCC) with the use of FuGENE6 (Roche Diagnostics). Sixteen hours later the serum was eliminated, and the cells were stimulated with PDGF-AB (Sigma, #3226) for 10 minutes. The cells were fixed with 4% paraformaldehyde, stained with FITC-conjugated anti-HA antibody (12CA5, MBL) or phospho-Ser 473 antibody (587-F11, Cell Signaling), and observed under the confocal microscope (Nikon).
As shown in the FIG. 10, in the 10/24 treated cells (g-i), the inhibition of the membrane translocation and activation of AKT was identified compared with the control peptides (a-f) (around the cells glowed green or yellow as shown in d or f, while this effect was inhibited in the 10/24 peptide as shown in […] or i. See the figure). That is, from the results of the experiment, it was identified that the 10/24 peptide inhibits the activation at the same time as the translocating of AKT to the membrane in cells. AKT essentially translocates to the cell surface where it is activated, but in the 10/24 peptide treated cells, it was identified that the translocation to membrane and activation of AKT was inhibited.

T1 sequence (P31749 whole entry): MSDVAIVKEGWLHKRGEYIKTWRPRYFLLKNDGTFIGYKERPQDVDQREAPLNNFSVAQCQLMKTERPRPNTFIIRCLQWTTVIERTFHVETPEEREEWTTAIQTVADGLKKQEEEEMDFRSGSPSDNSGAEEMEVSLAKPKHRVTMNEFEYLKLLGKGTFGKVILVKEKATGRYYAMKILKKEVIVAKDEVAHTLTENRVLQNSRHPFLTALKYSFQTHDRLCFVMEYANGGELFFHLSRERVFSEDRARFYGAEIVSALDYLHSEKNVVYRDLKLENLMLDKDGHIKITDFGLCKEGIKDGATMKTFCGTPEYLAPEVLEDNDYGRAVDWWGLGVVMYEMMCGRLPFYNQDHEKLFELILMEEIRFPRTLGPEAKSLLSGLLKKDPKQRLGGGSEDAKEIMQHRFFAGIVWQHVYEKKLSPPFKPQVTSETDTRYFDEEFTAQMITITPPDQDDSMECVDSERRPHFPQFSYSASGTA
T2 sequence (Q9Y243 whole entry, species assumed): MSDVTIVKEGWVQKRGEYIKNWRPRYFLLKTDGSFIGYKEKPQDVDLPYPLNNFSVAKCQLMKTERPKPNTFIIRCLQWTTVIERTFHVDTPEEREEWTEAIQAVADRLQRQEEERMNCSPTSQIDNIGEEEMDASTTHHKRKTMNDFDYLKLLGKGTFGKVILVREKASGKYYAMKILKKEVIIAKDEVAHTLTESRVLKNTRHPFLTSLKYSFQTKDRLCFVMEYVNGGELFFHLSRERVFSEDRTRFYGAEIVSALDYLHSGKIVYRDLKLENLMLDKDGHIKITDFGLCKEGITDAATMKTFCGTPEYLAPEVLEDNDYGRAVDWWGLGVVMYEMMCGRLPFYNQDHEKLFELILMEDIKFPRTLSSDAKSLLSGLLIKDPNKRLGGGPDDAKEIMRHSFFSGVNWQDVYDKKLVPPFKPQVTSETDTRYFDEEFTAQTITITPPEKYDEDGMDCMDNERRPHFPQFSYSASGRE

With “NH2-AVTDHPDRLWAWEKF-COOH (H-AVTDHPDRLWAWEKF-OH; listed as Homo sapiens) [10/24 peptide, amino acid residue 10-24 of human TCL1]”, in experiment [1], the “mode of inhibition of the binding of Phosphoinositide (PI (3,4,5) P3) to Akt kinase” value is on record as “competitively inhibits”. In addition, the “binding of PIP Beads (PI (3,4,5) P3) to AKT” value in experiment [1] (1-400 μM peptide, 50 ng AKT kinase, 2 hours at 4° C., western blotting) was “inhibited in a dose-dependent manner”. Also, the apoptosis entry in experiment [2] (T4 cell lines without stimulation, 0-30 μM, 48 hours, compared with control peptide) is “enhance apoptosis”. Besides, in experiment [2] (T4 cells, AKT dependency of the effect), the “apoptosis with myr-AKT (constitutively activated AKT) overexpression” value was “apoptosis was inhibited”. Besides, the “binding to Akt3” value in experiment [3] is “bound”. The “binding to Akt kinase” value in experiment [4] is “specifically binds”. In experiment [5], the “cell growth associated with AKT activation” value is recorded as “specifically inhibits cell growth”. For the same substance, in experiment [6] (tumors harvested on day 9), the “Akt activation (phospho Akt Ser 473 staining)” value is “inhibition of Akt activation”, the “apoptosis by H&E staining” value is “increased apoptosis” and the “cell apoptosis by TUNEL staining” value is on record as “increased cell apoptosis”. Besides, the “tumor size by macroscopic appearance” value in experiment [6] (tumors harvested on day 9, compared to the control) is recorded as “reduction in tumor size was clearly observed”. The “binding to Akt1” value in experiment [7] is listed as “bound”. For the same substance, the “membrane translocation of AKT” value in experiment [8] (anti-HA staining) was “inhibited”. In addition, the “activation of AKT (phospho-Ser 473 staining)” value in experiment [8] is “inhibited”.

The values above are taken from patent US9212210B2, “Akt activity specifically inhibiting polypeptide” (Japan Science and Technology Agency, priority 2003, dated 2015).
